{"source": "patent US20200038513A1", "about": "“MODULATORS OF FAK PROTEOLYSIS AND ASSOCIATED METHODS OF USE” (ARVINAS OPERATIONS, INC., priority 2018, published 2020)", "assay": "Pharmacokinetics of intraperitoneal or intravenous injection in CD1 mice", "assay_type": "in vivo", "conditions": "CD1 mice plasma; for concentration at 0.25 h / concentration at 0.5 h / concentration at 1 h / concentration at 2 h / concentration at 4 h / concentration at 0.033 h / concentration at 0.083 h: male, CD1, mouse, plasma", "experimental": "The pharmacokinetics of exemplary compounds 103, 107, 100, 101, and 102 was examined for intraperitoneal and intravenous administration. The desired serial concentrations of working solutions were achieved by diluting stock solution (1 mg/mL in DMSO) of analyte with methanol. In particular, 20 μL of working solutions (1, 2, 5, 10, 50, 100, 500, 1000, 2000 ng/mL) were added to 20 μL of the blank CD1 mice plasma to achieve calibration standards of 1-2000 ng/mL (1, 2, 5, 10, 50, 100, 500, 1000, 2000 ng/mL) in a total volume of 40 μL. Dose of IV and IP were diluted by 1000 fold and 10000 with methanol, 20 μL of the diluted dose solutions were added to 20 μL of the blank CD1 mice plasma to achieve dose samples. Next, 40 μL standards and 40 μL dose samples were added to 20 μL of IS (100 ng/mL) and 200 μL of acetonitrile for precipitating protein respectively. Then the samples were vortexed for 30 seconds. After centrifugation at 4 degree Celsius, 4000 rpm for 15 minutes, the supernatant was diluted 3 times with water. 10 μL of the diluted supernatant was injected into the LC/MS/MS system for quantitative analysis.\nExemplary compounds 103, 107, 100, 101, and 102 were administered intravenously (5 second injection of 10% HP-b-CD and 40 mM sodium acetate and 40 mM NaCl in water, pH4.5) or intraperitoneally (5% EtOH and 5% Solutol HS15 in D5W(ESD-2)) to 6-8 week old male CD1 mice (3 mice per treatment group for a total of 12 mice) at the time points indicated below in Table 7. The mice had free access to food and water.\nDorsal metatarsal vein samples (30 μL), except that the final sample was acquired via a heart puncture, were taken from the mice at the same the administration time points as shown in Table 7.", "key": {"[1]": {"conditions": "iv, 1 mg/kg, IV 1.0 mg/kg, read-out: Conc. (ng/mL) Mouse 1"}, "[2]": {"conditions": "iv, 1 mg/kg, IV 1.0 mg/kg, read-out: Conc. (ng/mL) Mouse 2"}, "[3]": {"conditions": "iv, 1 mg/kg, IV 1.0 mg/kg, read-out: Conc. (ng/mL) Mouse 3"}, "[4]": {"conditions": "iv, 1 mg/kg, IV 1.0 mg/kg, read-out: Mean"}}, "note": "Like-named read-outs stand apart in the source and are kept apart here."}
{"smiles": "CN(c1cccc(CNc2nc(Nc3ccc(OCCCOCCC(=O)NCCOc4cccc5c4C(=O)N(C4CCC(=O)NC4=O)C5=O)cc3)ncc2C(F)(F)F)c1)S(C)(=O)=O", "note": "(centres unmarked) [Compound 107]", "values": [{"measurement": "Conc. (ng/mL) Mouse 1", "setting": "IP 10 mg/kg, 8 h", "value": "BLOQ"}, {"measurement": "Conc. (ng/mL) Mouse 2", "setting": "IP 10 mg/kg, 8 h", "value": "BLOQ"}, {"measurement": "Conc. (ng/mL) Mouse 3", "setting": "IP 10 mg/kg, 8 h", "value": "BLOQ"}, {"measurement": "Conc. (ng/mL) Mouse 1", "setting": "IP 10 mg/kg, 24 h", "value": "BLOQ"}, {"measurement": "Conc. (ng/mL) Mouse 2", "setting": "IP 10 mg/kg, 24 h", "value": "BLOQ"}, {"measurement": "Conc. (ng/mL) Mouse 3", "setting": "IP 10 mg/kg, 24 h", "value": "BLOQ"}, {"measurement": "Conc. (ng/mL) Mouse 1", "setting": "IV 1.0 mg/kg, 0.25 h", "value": "BLOQ"}, {"measurement": "Conc. (ng/mL) Mouse 1", "setting": "IV 1.0 mg/kg, 0.5 h", "value": "BLOQ"}, {"measurement": "Conc. (ng/mL) Mouse 2", "setting": "IV 1.0 mg/kg, 0.5 h", "value": "BLOQ"}, {"measurement": "Conc. (ng/mL) Mouse 3", "setting": "IV 1.0 mg/kg, 0.5 h", "value": "BLOQ"}, {"measurement": "Conc. (ng/mL) Mouse 1", "setting": "IV 1.0 mg/kg, 1 h", "value": "BLOQ"}, {"measurement": "Conc. (ng/mL) Mouse 2", "setting": "IV 1.0 mg/kg, 1 h", "value": "BLOQ"}, {"measurement": "Conc. (ng/mL) Mouse 3", "setting": "IV 1.0 mg/kg, 1 h", "value": "BLOQ"}, {"measurement": "Conc. (ng/mL) Mouse 1", "setting": "IV 1.0 mg/kg, 2 h", "value": "BLOQ"}, {"measurement": "Conc. (ng/mL) Mouse 2", "setting": "IV 1.0 mg/kg, 2 h", "value": "BLOQ"}, {"measurement": "Conc. (ng/mL) Mouse 3", "setting": "IV 1.0 mg/kg, 2 h", "value": "BLOQ"}, {"measurement": "Conc. (ng/mL) Mouse 1", "setting": "IV 1.0 mg/kg, 4 h", "value": "BLOQ"}, {"measurement": "Conc. (ng/mL) Mouse 2", "setting": "IV 1.0 mg/kg, 4 h", "value": "BLOQ"}, {"measurement": "Conc. (ng/mL) Mouse 3", "setting": "IV 1.0 mg/kg, 4 h", "value": "BLOQ"}, {"measurement": "Conc. (ng/mL) Mouse 1", "setting": "IV 1.0 mg/kg, 8 h", "value": "BLOQ"}, {"measurement": "Conc. (ng/mL) Mouse 2", "setting": "IV 1.0 mg/kg, 8 h", "value": "BLOQ"}, {"measurement": "Conc. (ng/mL) Mouse 3", "setting": "IV 1.0 mg/kg, 8 h", "value": "BLOQ"}, {"measurement": "Conc. (ng/mL) Mouse 1", "setting": "IV 1.0 mg/kg, 24 h", "value": "BLOQ"}, {"measurement": "Conc. (ng/mL) Mouse 2", "setting": "IV 1.0 mg/kg, 24 h", "value": "BLOQ"}, {"measurement": "Conc. (ng/mL) Mouse 3", "setting": "IV 1.0 mg/kg, 24 h", "value": "BLOQ"}, {"measurement": "concentration at 0.25 h", "setting": "ip, 10 mg/kg, IP 10 mg/kg, 0.25 h, read-out: Conc. (ng/mL) Mouse 1", "value": 44.8, "unit": "ng/mL"}, {"measurement": "concentration at 0.25 h", "setting": "ip, 10 mg/kg, IP 10 mg/kg, 0.25 h, read-out: Conc. (ng/mL) Mouse 2", "value": 42.6, "unit": "ng/mL"}, {"measurement": "concentration at 0.25 h", "setting": "ip, 10 mg/kg, IP 10 mg/kg, 0.25 h, read-out: Conc. (ng/mL) Mouse 3", "value": 111, "unit": "ng/mL"}, {"measurement": "concentration at 0.25 h", "setting": "ip, 10 mg/kg, IP 10 mg/kg, 0.25 h, read-out: Mean", "value": 66, "unit": "ng/mL"}, {"measurement": "concentration at 0.5 h", "setting": "ip, 10 mg/kg, IP 10 mg/kg, 0.5 h, read-out: Conc. (ng/mL) Mouse 1", "value": 68.4, "unit": "ng/mL"}, {"measurement": "concentration at 0.5 h", "setting": "ip, 10 mg/kg, IP 10 mg/kg, 0.5 h, read-out: Conc. (ng/mL) Mouse 2", "value": 41.9, "unit": "ng/mL"}, {"measurement": "concentration at 0.5 h", "setting": "ip, 10 mg/kg, IP 10 mg/kg, 0.5 h, read-out: Conc. (ng/mL) Mouse 3", "value": 69.3, "unit": "ng/mL"}, {"measurement": "concentration at 0.5 h", "setting": "ip, 10 mg/kg, IP 10 mg/kg, 0.5 h, read-out: Mean", "value": 59.9, "unit": "ng/mL"}, {"measurement": "concentration at 1 h", "setting": "ip, 10 mg/kg, IP 10 mg/kg, 1 h, read-out: Conc. (ng/mL) Mouse 1", "value": 64.7, "unit": "ng/mL"}, {"measurement": "concentration at 1 h", "setting": "ip, 10 mg/kg, IP 10 mg/kg, 1 h, read-out: Conc. (ng/mL) Mouse 2", "value": 54.2, "unit": "ng/mL"}, {"measurement": "concentration at 1 h", "setting": "ip, 10 mg/kg, IP 10 mg/kg, 1 h, read-out: Conc. (ng/mL) Mouse 3", "value": 199, "unit": "ng/mL"}, {"measurement": "concentration at 1 h", "setting": "ip, 10 mg/kg, IP 10 mg/kg, 1 h, read-out: Mean", "value": 106, "unit": "ng/mL"}, {"measurement": "concentration at 2 h", "setting": "ip, 10 mg/kg, IP 10 mg/kg, 2 h, read-out: Conc. (ng/mL) Mouse 1", "value": 53.2, "unit": "ng/mL"}, {"measurement": "concentration at 2 h", "setting": "ip, 10 mg/kg, IP 10 mg/kg, 2 h, read-out: Conc. (ng/mL) Mouse 2", "value": 38.1, "unit": "ng/mL"}, {"measurement": "concentration at 2 h", "setting": "ip, 10 mg/kg, IP 10 mg/kg, 2 h, read-out: Conc. (ng/mL) Mouse 3", "value": 59.8, "unit": "ng/mL"}, {"measurement": "concentration at 2 h", "setting": "ip, 10 mg/kg, IP 10 mg/kg, 2 h, read-out: Mean", "value": 50.4, "unit": "ng/mL"}, {"measurement": "concentration at 4 h", "setting": "ip, 10 mg/kg, IP 10 mg/kg, 4 h, read-out: Conc. (ng/mL) Mouse 1", "value": 4.11, "unit": "ng/mL"}, {"measurement": "concentration at 4 h", "setting": "ip, 10 mg/kg, IP 10 mg/kg, 4 h, read-out: Conc. (ng/mL) Mouse 2", "value": 14.9, "unit": "ng/mL"}, {"measurement": "concentration at 4 h", "setting": "ip, 10 mg/kg, IP 10 mg/kg, 4 h, read-out: Conc. (ng/mL) Mouse 3", "value": 22.2, "unit": "ng/mL"}, {"measurement": "concentration at 4 h", "setting": "ip, 10 mg/kg, IP 10 mg/kg, 4 h, read-out: Mean", "value": 13.7, "unit": "ng/mL"}, {"measurement": "concentration at 0.033 h", "setting": "[1]", "value": 31.4, "unit": "ng/mL"}, {"measurement": "concentration at 0.033 h", "setting": "[2]", "value": 31.6, "unit": "ng/mL"}, {"measurement": "concentration at 0.033 h", "setting": "[3]", "value": 34.3, "unit": "ng/mL"}, {"measurement": "concentration at 0.033 h", "setting": "[4]", "value": 32.4, "unit": "ng/mL"}, {"measurement": "concentration at 0.083 h", "setting": "[1]", "value": 8.44, "unit": "ng/mL"}, {"measurement": "concentration at 0.083 h", "setting": "[2]", "value": 9.65, "unit": "ng/mL"}, {"measurement": "concentration at 0.083 h", "setting": "[3]", "value": 9.61, "unit": "ng/mL"}, {"measurement": "concentration at 0.083 h", "setting": "[4]", "value": 9.23, "unit": "ng/mL"}, {"measurement": "concentration at 0.25 h", "setting": "iv, 1 mg/kg, IV 1.0 mg/kg, 0.25 h, read-out: Conc. (ng/mL) Mouse 2", "value": 2.25, "unit": "ng/mL"}, {"measurement": "concentration at 0.25 h", "setting": "iv, 1 mg/kg, IV 1.0 mg/kg, 0.25 h, read-out: Conc. (ng/mL) Mouse 3", "value": 1.73, "unit": "ng/mL"}, {"measurement": "concentration at 0.25 h", "setting": "iv, 1 mg/kg, IV 1.0 mg/kg, 0.25 h, read-out: Mean", "value": 1.99, "unit": "ng/mL"}]}
